Measurements from article PMC10889512, “Pyrimidine Schiff Bases: Synthesis, Structural Characterization and Recent Studies on Biological Activities” (International Journal of Molecular Sciences, 2024).

Assays:
P. aeruginosa 27853 = assay: Antimicrobial activity assay, microdilution; format: cell-based, Pseudomonas aeruginosa; details: concentration range from 0.5 µg/mL to 256 µg/mL
Experimental: (§1) In vitro antimicrobial and antifungal activity was screened using microdilution and modified Richard’s medium. The assay was performed for compounds 4a, 4b, 4c, and 4d with seven reference microbial strains from ATTC (E. coli 25922, S. aureus 43300, K. pneumoniae 700603, A. baumannii 19606, P. aeruginosa 27853, E. faecalis 29212, and C. albicans 10231).
(§2) Seven reference strains from the ATCC collection (Escherichia coli 25922, Staphylococcus aureus 43300, Klebsiella pneumoniae 13883, Acinetobacter baumannii 19606, Pseudomonas aeruginosa 27853, Enterococcus faecalis 29212, and Candida albicans 10231) were used. The assay was performed according to a modified version of Richard et al.’s protocol and ISO standards 20776-1:2019 and 16256:2021 [78, 79]. Microdilution with spectrophotometric measurement was used to calculate MIC50 (minimal inhibitory concentration which decreased the microorganisms’ viability to 50%) values. Briefly, compounds were prepared 100× concentrated in DMSO, and during the whole experiment, they were diluted to 1× with TSB. Serial dilutions of tested compounds were made directly on plates at a concentration range of 0.5 to 256 µg/mL. Microorganisms were incubated for 24 h at 37 °C (bacteria) or 25 °C (yeast) on Petri dishes with TSA. The bacteria/yeast suspensions were prepared at a density 5 × 10^5 CFU/mL (for bacteria) or 0.5–2.5 × 10^5 CFU/mL (for yeast) with TSB. Also, appropriate controls were contained in the experiment: the positive control consisted of a specific strain in TSB, and the negative control was TSB alone. To ensure that used strains were not modified and were still responding to antibacterial/antifungal compounds established by EUCAST, additional tests were conducted with levofloxacin, gentamicin, and amphotericin B. Microplates were incubated on a shaker for 24 h at 37 ± 1 °C or 25 ± 1 °C for the bacteria and yeast strains, respectively. After the incubation, spectrophotometric measurement was performed at 580 nm. MIC50 was calculated by comparing the results obtained for experimental sets with positive controls. Next, 50 µL aliquots of 1% (m/v) TTC solution were added to each well. The plates were incubated on the shaker for 24 h at 37/25 °C. In living microbial cells, colourless TTC is converted into red formazan crystals, which allows for visual observation and MBC/MFC (minimal bactericidal/fungicidal concentration) value assessment.

C. albicans 10231 = assay: Antifungal activity assay, microdilution; format: cell-based, Candida albicans; details: concentration range from 0.5 µg/mL to 256 µg/mL
Experimental: as §1, §2

AGS cell line = assay: Comet assay (single-cell gel electrophoresis), AGS; format: cell-based, human
Experimental: Single-cell gel electrophoresis was performed to assess the potential genotoxic effect on AGS and A172 after incubation with compound 4b at IC50. This method is based on the ability of damaged DNA to migrate out of the cell during electrophoresis. After DNA staining (Hoechst 33342), the characteristic “comet tail” could be observed under the fluorescence microscope. The damages in 100 randomly selected cells were visually classified into five groups according to the length of the “comet tail”. Group 0 consisted of cells without damaged DNA, while group 4 contained cells with maximally long tails. Based on this, a group damage index (DI) was calculated. The genotoxic effect was found in both examined cell lines. […]
The comet assay was performed according to the method of Singh et al. with slight modifications. […] A total of 100 randomly selected cells were scored, and captured comets were classified based on the comet’s tail length as follows: class 0 contained comets with no damaged DNA; class 1, those with low damage; class 2, those with medium damage; class 3, those with high damage; and class 4, those with very high damage. The damage index (DI) was calculated as follows: DI=0×n0+1×n1+2×n2+3×n3+4×n4, n0,1,2,3,4 —the amount of comets in each class.

Cc1nc(-c2ccccc2)nc(Nc2ccc(F)cc2)c1C=Nc1cccc(Cl)c1 [compound 4b, 5-{[(3-chlorophenyl)imino]methyl}-N-(4-fluorophenyl)-6-methyl-2-phenylpyrimidin-4-amine]
MIC and MBC/MFC activity (P. aeruginosa 27853): Neither MIC nor MBC/MFC activity was observed | MIC and MBC/MFC activity (C. albicans 10231): Neither MIC nor MBC/MFC activity was observed | DNA damage index (AGS cell line; at IC50, 24 h): 63 arbitrary units | DNA damage index (AGS cell line; at IC50, 48 h): 107 arbitrary units
